Reference: patent US20250367230A1, “Method for preparing SAMe microcapsules” (XIAMEN KINGDOMWAY BIOTECH. CO., LTD., priority 2024, published 2025)

Assays:
[1] = Determination of pH value of SAMe microcapsules; type: physicochemical; conditions: 1 g of sample added to 100 g of water
Method: 1 g of each of the above samples was taken and added to 100 g of water, and the pH value was measured.

[2] = tested on: mouse gastrointestinal tract; assay: Effect on mouse gastrointestinal tract (indomethacin/ethanol ulcer model, gastric mucosal lesion area); type: in vivo, mice (C57); conditions: mice, 5.0 g/kg·bw gavage once a day for 21 days, then indomethacin 10 mg/kg·bw i.p. and 60% ethanol gavage
Source text: Experimental animals: Healthy adult mice (C57, purchased from Pabeile Experimental Animal Breeding Co., Ltd.), with body weight of 18 to 22 g.
Experimental materials: The test samples were SAMe microcapsules obtained from the formulas in Examples 1 to 5 and Comparative Examples 1 to 9, and SAMe raw material.
Experimental method: The designed dose (5.0 g/kg·bw) was equivalent to 5 times the recommended dosage for humans, and an ulcer model control group was set. Each group was gavaged with the test sample once a day, and the control group was fed with an equal volume of distilled water. After 21 consecutive days of feeding, the animals were fasted for 1 day. 0.5 h after the last gavage, the mice of each group were intraperitoneally injected with indomethacin suspension (purchased from Liaoyang Helin Pharmaceutical Co., Ltd.) (10 mg/kg·bw), and 1 h later, the mice were gavaged with 60% ethanol ([…]). After 1 h, the mice were killed by cervical dislocation, laparotomy and ligation of pylorus were carried out, and 1 mL of 1% formalin was orally gavaged. The cardia was immediately ligated and the entire stomach was cut off. After flushing the stomach contents, the stomach was spread on a glass plate. Under a shadowless magnifying lamp, the area of gastric mucosal lesions was measured and statistically analyzed.

S-Adenosyl-L-methionine Disulfate Tosylate [SAMe raw material]
pH value [1]: 1.3
Lesion area (gastric mucosal lesions) [2]: 11.57 ± 4.35 mm^2
